From PMC11211886 (Frontiers in Pharmacology, 2024)

Columns and labels:
plasma proteins = assay: Plasma protein binding (RED), dog plasma; format: in vitro ADME
Experimental: The plate containing plasma and buffer was equilibrated for 6 h in a 37°C water shaking bath. After incubation, aliquots of buffer and plasma (20 µL) on both sides were collected and precipitated using organic solvents. […] The post-dialysis recovery of amdizalisib was also measured.

[1] = Metabolic stability in monkey liver microsomes; format: in vitro ADME
Experimental: FMO was deactivated by heating liver microsomes at 45°C for 5 min. […] The natural logarithm of the percentage of the drug remaining was plotted against the incubation time, and the slope of the linear regression (-k) was converted to in vitro half-lives (t1/2) using the following equation: […] (1) metabolic clearance is the major mechanism of clearance; (2) liver is the major organ of clearance; and (3) oxidation is the major metabolic pathway. CLint,in vitro=k / Cmicrosomes , Scaled CLint,in vivo=CLint,in vitro×microsomes yield×liver weight, where Cmicrosomes means the experimental protein concentration (0.5 mg/mL) in the incubation system. […] Then, the scaled in vivo intrinsic clearance was used to predict the systemic clearance (equal to the hepatic clearance) using the well-stirred venous equilibration model ([Houston, 1994]).

[2] = Metabolic stability in rat liver microsomes; format: in vitro ADME; conditions: for CLint scaled at 1 µM: pH 7.4, Predicted CL int, iv vivo
Experimental: FMO was deactivated by heating liver microsomes at 45°C for 5 min. […] (1) metabolic clearance is the major mechanism of clearance; (2) liver is the major organ of clearance; and (3) oxidation is the major metabolic pathway. CLint,in vitro=k / Cmicrosomes , Scaled CLint,in vivo=CLint,in vitro×microsomes yield×liver weight, where Cmicrosomes means the experimental protein concentration (0.5 mg/mL) in the incubation system.

OATP1B1 = target: T1, OATP1B1 (Homo sapiens, UniProt Q9Y6L6); assay: OATP1B1 inhibition, β-estradiol 17-(β-D-glucuronide) uptake in transfected HEK293 cells
T1 sequence (Q9Y6L6 1-691): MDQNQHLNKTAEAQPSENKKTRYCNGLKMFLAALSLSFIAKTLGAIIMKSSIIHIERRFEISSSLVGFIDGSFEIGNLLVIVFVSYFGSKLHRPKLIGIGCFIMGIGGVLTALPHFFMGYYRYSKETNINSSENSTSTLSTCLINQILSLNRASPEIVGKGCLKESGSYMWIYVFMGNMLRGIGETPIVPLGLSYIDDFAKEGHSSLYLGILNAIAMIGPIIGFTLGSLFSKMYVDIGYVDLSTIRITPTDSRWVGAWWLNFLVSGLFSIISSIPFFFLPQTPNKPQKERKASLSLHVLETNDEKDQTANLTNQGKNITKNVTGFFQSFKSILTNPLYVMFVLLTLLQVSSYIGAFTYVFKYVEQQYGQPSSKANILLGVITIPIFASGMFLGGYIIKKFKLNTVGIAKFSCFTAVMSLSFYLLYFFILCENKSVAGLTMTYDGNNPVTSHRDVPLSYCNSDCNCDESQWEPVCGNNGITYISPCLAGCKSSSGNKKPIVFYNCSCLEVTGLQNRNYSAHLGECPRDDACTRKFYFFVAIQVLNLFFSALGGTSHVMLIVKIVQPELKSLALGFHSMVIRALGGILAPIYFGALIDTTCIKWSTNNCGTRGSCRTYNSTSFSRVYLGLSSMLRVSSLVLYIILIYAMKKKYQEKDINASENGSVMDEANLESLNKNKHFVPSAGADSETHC
Experimental: The pre-incubation solutions were removed, and incubation solutions containing the inhibitors and probe substrates (or transport buffer containing an equal volume of vehicle control and probe substrates) were added and incubated at 37°C for 2 min (5 min for OATP1B3). The probe substrate for OAT1 was 4-aminohippuric acid (10 μM), for OAT3 was estrone 3-sulfate (10 μM), for OCT2 was metformin (100 μM), for OATP1B1 was β-estradiol 17-(β-D-glucuronide) (5 μM), for OATP1B3 was β-estradiol 17-(β-D-glucuronide) (10 μM), and for MATE1 and MATE2-K was tetraethylammonium (10 μM). After incubation, cells were washed three times with ice-cold transport buffer (25 mM HEPES, pH 7.4, pH 8.0 for overexpressing MATE1 and MATE2-K HEK293 cells) and lysed in distilled water. The concentrations of probe substrates were determined by LC-MS/MS, and a BCA Kit (Solarbio ®Life Sciences, Beijing, China) was used to determine the protein content in the cell lysate.
where C is the concentration of the drug in the cell lysate (nM), P is the protein concentration of the cell lysate (mg/mL), and T is the incubation time (minute). Uptake ratetest compound is the uptake rate of the substrate in the presence of the test compound. Uptake ratevehicle control is the uptake rate of the substrate in the presence of the vehicle control. Uptake ratepassive is the uptake rate of the substrate in the presence of the positive inhibitor at the top test concentration.

For `C[C@H](Nc1ncnc(N)c1C#N)c1cc2ncc(Cl)n2nc1-c1ccccc1` [Amdizalisib], the “Binding fraction to plasma proteins, Dog” value (plasma proteins; 0.1 µM) was 87.7 ± 5.15%, the “Binding fraction to plasma proteins, Dog” value (plasma proteins; 1 µM) was 89.1 ± 0.83% and the “Binding fraction to plasma proteins, Dog” value (plasma proteins; 20 µM) was 88.8 ± 0.69%. For the same molecule, the CLint scaled at 1 µM ([1]; female, monkey, microsomes, pH 7.4, Predicted CL int, iv vivo) was 19.2 mL/min/kg, the half-life at 1 µM ([1]; female, monkey, microsomes, pH 7.4, in vitro t1/2) was 1.63 h and the “Predicted CL sys” value ([1]; male monkey liver microsomes, FMO deactivation) was 15.9 mL/min/kg. The CLint scaled at 1 µM ([1]; male, monkey, microsomes, pH 7.4, Predicted CL int, iv vivo) was 30 mL/min/kg, the half-life at 1 µM ([1]; male, monkey, microsomes, pH 7.4, in vitro t1/2) was 1.04 h and the CLint scaled at 1 µM ([1]; pH 7.4, female monkey liver microsomes, FMO deactivation, read-out: Predicted CL int, iv vivo) was 18.1 mL/min/kg. For the same molecule, the half-life at 1 µM ([1]; pH 7.4, female monkey liver microsomes, FMO deactivation, read-out: in vitro t1/2) was 1.72 h, the “Predicted CL sys” value ([2]; female rat liver microsomes, normal) was 10.7 mL/min/kg and the CLint scaled at 1 µM ([2]; female, rat, microsomes) was 13.3 mL/min/kg. It also gave a half-life at 1 µM ([2]; female, rat, microsomes, pH 7.4, in vitro t1/2) of 3.12 h, a CLint scaled at 1 µM ([2]; male, rat, microsomes) of 65.9 mL/min/kg and a half-life at 1 µM ([2]; male, rat, microsomes, pH 7.4, in vitro t1/2) of 0.632 h. The half-life at 1 µM ([2]; pH 7.4, male rat liver microsomes, FMO deactivation, read-out: in vitro t1/2) was 0.695 h, the IC50 (OATP1B1) was 7.27 µM and the Percentage transported (OATP1B1; human, 2 min, 0.3 μM, pH 7.4) was 113%. The Uptake rate (OATP1B1; human, 2 min, 0.3 μM, pH 7.4) was 59.0±1.42 pmol/mg protein/min, the Percentage transported (OATP1B1; human, 2 min, 1 μM, pH 7.4) was 105% and the Uptake rate (OATP1B1; human, 2 min, 1 μM, pH 7.4) was 55.1±2.95 pmol/mg protein/min. For the same molecule, the Percentage transported (OATP1B1; human, 2 min, 3 μM, pH 7.4) was 86.5%, the Uptake rate (OATP1B1; human, 2 min, 3 μM, pH 7.4) was 47.2±3.13 pmol/mg protein/min and the Percentage transported (OATP1B1; human, 2 min, 10 μM, pH 7.4) was 32.7%. For the same molecule, the Uptake rate (OATP1B1; human, 2 min, 10 μM, pH 7.4) was 19.3±4.10 pmol/mg protein/min, the Percentage transported (OATP1B1; human, 2 min, 30 μM, pH 7.4) was 8.04% and the Percentage transported (OATP1B1; human, 2 min, 100 μM, pH 7.4) was -3.17%. The Uptake rate (OATP1B1; human, 2 min, 100 μM, pH 7.4) was 1.46±0.141 pmol/mg protein/min, the “calculated R value (OATP1B1)” value (OATP1B1; human, 2 min, pH 7.4) was 3.8 and the inhibition at 2 min, 0.3 µM (OATP1B1; human, pH 7.4) was -12.5%. It also gave an inhibition at 2 min, 1 µM (OATP1B1; human, pH 7.4) of -4.64%, an inhibition at 2 min, 3 µM (OATP1B1; human, pH 7.4) of 13.5% and an inhibition at 2 min, 10 µM (OATP1B1; human, pH 7.4) of 67.3%. The inhibition at 2 min, 30 µM (OATP1B1; human, pH 7.4) was 92% and the inhibition at 2 min, 100 µM (OATP1B1; human, pH 7.4) was 103%.
